Here are results for 15 compounds from patent US8551981B2, “Furo[3,2-d]pyrimidine compounds” (AbbVie Inc., priority 2010, dated 2013).

This experiment relates to Fcγ receptor signaling. Kind of experiment: Reverse Passive Arthus model. The format is in vivo. To be noted: Rattus norvegicus, single dose 10 mg/kg. Here is the method:
Acute in vivo measurement of Fcγ receptor signaling inhibition of the compounds is measured using the:
Reverse Passive Arthus Model
On day 0 OVA was made up at a concentration of 17 mg/mL, in PBS by rocking gently until a solution was formed. 2% Evans Blue solution (Sigma Aldrich, cat# E2129) was then added to double the volume for a final concentration of 8.5 mg/mL of OVA and 1% Evans Blue dye. Anti-OVA antibody (Abazyme), stock concentration 10 mg/mL, was thawed and a 4 mg/mL solution was made with PBS. Compounds were made up in 0.5% HPMC with 0.02% Tween 80, and vortexed for about 15 seconds followed by homogenization for a minimum of about 2 min at 28,000 RPM until there was a fine particulate suspension with no clumps of compound. Rats were weighed and dosed with compound at a pre-determined time based on compound Tmax determined in pharmacokinetic studies. Animals were then placed under general anesthesia with a 5% isoflourane and oxygen mixture and shaved. Using a 0.5 cc insulin syringe two sites were injected i.d., 1 site with 100 μL of 4.0 mg/mL of anti-OVA antibody, and 1 site with 100 μL of sterile PBS. Each injection site was circled with a permanent marker to mark the site. Immediately following i.d. injections, animals were injected with 200 μL of the OVA (10 mg/kg)/1% Evans Blue mixture, i.v., using a 0.5 cc insulin syringe. About 4 h post injection animals were euthanized, bled via cardiac puncture and blood was put into plasma separation tubes. Blood samples were stored on ice until centrifugation (within about 2 h of collection). Each injection site was removed with a disposable biopsy punch (Acuderm Acu-Punch Disposable 12 mm), cut into four pieces and placed in a pre-labeled 2 mL eppendorf tube. One mL of DMF (99%) was added to each biopsy tube and they were placed in a heat block at about 50° C. for about 24 h. After incubation, 100 μL of each sample was transferred to a 96 well flat bottom plate and read at 620 nm on a plate reader using the Softmax software. Background was removed by subtracting the OD from the PBS injected site from the OD of the anti-OVA injected site for each individual animal. Plasma samples were spun down in a microcentrifuge (Eppendorf 5415R) for about 5 min at 16.1 rcf. 200 μL of plasma was placed in a 1.7 mL eppendorf tube for drug level measurements and tubes were stored at about −80° C. until evaluation.

Molecules are shown by their SMILES.

On to `O=C1CCc2ccc(Nc3nc(NC4CC4)c4occc4n3)cc2N1` [Example #7, 7-(4-(Cyclopropylamino)furo[3,2-d]pyrimidin-2-ylamino)-3,4-dihydroquinolin-2(1H)-one], for which the inhibition in vivo at 10 mg/kg stood at 73%.

On to `CC1(C)C(=O)Nc2cc(Nc3nc(NC4CC4)c4occc4n3)ccc21` [Example #11, 6-(4-(Cyclopropylamino)furo[3,2-d]pyrimidin-2-ylamino)-3,3-dimethylindolin-2-one], for which the inhibition in vivo at 10 mg/kg is 65%.

As for `CC1(CN)CCN(c2nc(Nc3ccc4cn[nH]c4c3)nc3ccoc23)CC1` [Example #12, 4-(4-(Aminomethyl)-4-methylpiperidin-1-yl)-N-(1H-indazol-6-yl)furo[3,2-d]pyrimidin-2-amine], the inhibition in vivo at 10 mg/kg was 8%.

Regarding `FC(F)(F)CNc1nc(Nc2ccc3cn[nH]c3c2)nc2ccoc12` [Example #13, N^2-(1H-Indazol-6-yl)-N^4-(2,2,2-trifluoroethyl)furo[3,2-d]pyrimidine-2,4-diamine], the inhibition in vivo at 10 mg/kg was found to be 70%.

Turning to `c1cc2nc(Nc3ccc4cn[nH]c4c3)nc(NC3CC3)c2o1` [Example #15, N^4-Cyclopropyl-N^2-(1H-indazol-6-yl)furo[3,2-d]pyrimidine-2,4-diamine], the inhibition in vivo at 10 mg/kg came to 45%.

Regarding `CC1(C)C(=O)Nc2cc(Nc3nc(NCC(F)F)c4occc4n3)ccc21` [Example #16, 6-(4-(2,2-Difluoroethylamino)furo[3,2-d]pyrimidin-2-ylamino)-3,3-dimethylindolin-2-one], the inhibition in vivo at 10 mg/kg worked out at 63%.

Consider `Cc1cc(Nc2nc(NC3CC3)c3occc3n2)cc2[nH]ncc12` [Example #AC.1, N^4-cyclopropyl-N^2-(4-methyl-1H-indazol-6-yl)furo[3,2-d]pyrimidine-2,4-diamine], for which the inhibition in vivo at 10 mg/kg was 43%.

With `Cc1n[nH]c2cc(Nc3nc(N4CCC(O)(CN)CC4)c4occc4n3)ccc12` [Example #AM.1, 4-(Aminomethyl)-1-(2-(3-methyl-1H-indazol-6-ylamino)furo[3,2-d]pyrimidin-yl)piperidin-4-ol], the inhibition in vivo at 10 mg/kg was 3%.

`CC1(C)Oc2ccc(Nc3nc(N4CCC(O)(CN)CC4)c4occc4n3)cc2NC1=O` [Example #AM.1.1]: the inhibition in vivo at 10 mg/kg stood at 12%.

Regarding `CC1(C)Oc2ccc(Nc3nc(N4CC[C@@H](CN)[C@H](O)C4)c4occc4n3)cc2NC1=O` [Example #AM.1.2], the inhibition in vivo at 10 mg/kg was -16%.

Turning to `CC1(C)C(=O)Nc2cc(Nc3nc(N4CCC(O)(CN)CC4)c4occc4n3)ccc21` [Example #AM.1.3], the inhibition in vivo at 10 mg/kg was 15%.

As to `CN(C)C(=O)c1n[nH]c2cc(Nc3nc(NC4CC4)c4occc4n3)ccc12` [J.1, 6-(4-(Cyclopropylamino)furo[3,2-d]pyrimidin-2-ylamino)-N,N-dimethyl-1H-indazole-3-carboxamide], the inhibition in vivo at 10 mg/kg is -2%.

For the compound `c1cc(-c2n[nH]c3cc(Nc4nc(NC5CC5)c5occc5n4)ccc23)ccn1` [J.1.7], the inhibition in vivo at 10 mg/kg was 12%.

In the case of `N#Cc1n[nH]c2cc(Nc3nc(NC4CC4)c4occc4n3)ccc12` [J.1.8], the inhibition in vivo at 10 mg/kg worked out at 9%.

As for `Cc1n[nH]c2cc(Nc3nc(N4CCC5(CC4)CNCCO5)c4occc4n3)ccc12` [Q.1.4], the inhibition in vivo at 10 mg/kg is 33%.

Usually inhibition in vivo stands for the change of the read-out against control, counted positive when it falls.
